Source: PubChem BioAssay (NCI)
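How tested: cells in 96-well plates exposed to compound for 48 hours at five concentrations. TGI marks complete inhibition of growth.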

Key:
Assay in all cases: growth of human tumour cells (NCI), 48 h
[1] = test system: HCT-15 colon
[2] = test system: HL-60(TB) leukemia
[3] = test system: 786-0 renal
[4] = test system: MALME-3M melanoma
[5] = test system: UO-31 renal
[6] = test system: KM12 colon
[7] = test system: PC-3 prostate
[8] = test system: BT-549 breast
[9] = test system: SNB-19 CNS
[10] = test system: HOP-62 NSCLC
[11] = test system: RXF 393 renal
[12] = test system: SK-MEL-28 melanoma
[13] = test system: MDA-MB-231 breast
[14] = test system: SF-539 CNS
[15] = test system: SK-MEL-5 melanoma
[16] = test system: SN12C renal
[17] = test system: HS 578T breast
[18] = test system: HOP-92 NSCLC
[19] = test system: SF-295 CNS
[20] = test system: T-47D breast
[21] = test system: OVCAR-5 ovarian
[22] = test system: SK-MEL-2 melanoma
[23] = test system: OVCAR-3 ovarian
[24] = test system: NCI/ADR-RES ovarian
[25] = test system: DU-145 prostate
[26] = test system: SF-268 CNS
[27] = test system: SR leukemia
[28] = test system: NCI-H522 lung
[29] = test system: MOLT-4 leukemia
[30] = test system: NCI-H460 lung
[31] = test system: SW-620 colon
[32] = test system: MDA-MB-435
[33] = test system: HT29 colon
[34] = test system: OVCAR-8 ovarian
[35] = test system: LOX IMVI melanoma
[36] = test system: UACC-62 melanoma
[37] = test system: ACHN renal
[38] = test system: A498 renal
[39] = test system: NCI-H226 lung
[40] = test system: MDA-N
[41] = test system: HCT-116 colon
[42] = test system: UACC-257 melanoma
[43] = test system: IGROV1 ovarian
[44] = test system: MCF7 breast
[45] = test system: SK-OV-3 ovarian
[46] = test system: A549 NSCLC
[47] = test system: COLO 205 colon
[48] = test system: TK-10 renal
[49] = test system: NCI-H23 lung
[50] = test system: K-562 leukemia
[51] = test system: OVCAR-4 ovarian
[52] = test system: EKVX NSCLC
[53] = test system: M14 melanoma
[54] = test system: HCC-2998 colon
[55] = test system: U251 CNS
[56] = test system: CAKI-1 renal
[57] = test system: RPMI-8226 leukemia
[58] = test system: SNB-75 CNS
[59] = test system: CCRF-CEM leukemia

## COc1ccc2c(c1OC)C(Br)CCC(Br)(Br)C2=O (stereo not drawn)
[1]
  TGI: 25.6 µM
[2]
  TGI: 23.7 µM
[3]
  TGI: 15.3 µM
[4]
  TGI: 22.6 µM
[5]
  TGI: 14 µM
[6]
  TGI: 32.2 µM
[7]
  TGI: 24.2 µM
[8]
  TGI: 20.3 µM
[9]
  TGI: 28.9 µM
[10]
  TGI: 36.7 µM
[11]
  TGI: 15.1 µM
[12]
  TGI: 29.3 µM
[13]
  TGI: 29.9 µM
[14]
  TGI: 11.7 µM
[15]
  TGI: 14.7 µM
[16]
  TGI: 16.7 µM
[17]
  TGI: 44.2 µM
[18]
  TGI: 9.44 µM
[19]
  TGI: 32.5 µM
[20]
  TGI: 43 µM
[21]
  TGI: 31.8 µM
[22]
  TGI: 28 µM
[23]
  TGI: 30.2 µM
[24]
  TGI: 40.2 µM
[25]
  TGI: 24.9 µM
[26]
  TGI: 27.4 µM
[27]
  TGI: 4.22 µM
[28]
  TGI: 3.38 µM
[29]
  TGI: 8.32 µM
[30]
  TGI: 31 µM
[31]
  TGI: 6.61 µM
[32]
  TGI: 19.3 µM
[33]
  TGI: 17.6 µM
[34]
  TGI: 21.9 µM
[35]
  TGI: 10.8 µM
[36]
  TGI: 27.7 µM
[37]
  TGI: 3.81 µM
[38]
  TGI: 29.4 µM
[39]
  TGI: 30.1 µM
[40]
  TGI: 14.2 µM
[41]
  TGI: 17.3 µM
[42]
  TGI: 27.7 µM
[43]
  TGI: 18.8 µM
[44]
  TGI: 21.3 µM
[45]
  TGI: 31.2 µM
[46]
  TGI: 29 µM
[47]
  TGI: 10.1 µM
[48]
  TGI: 19.4 µM
[49]
  TGI: 22.8 µM
[50]
  TGI: 11.6 µM
[51]
  TGI: 18.9 µM
[52]
  TGI: 29.4 µM
[53]
  TGI: 18.3 µM
[54]
  TGI: 23.7 µM
[55]
  TGI: 30.4 µM
[56]
  TGI: 3.24 µM
[57]
  TGI: 26.1 µM

## O=C(O)CSCC(=O)c1ccccc1
[1]
  TGI: > 100 µM
[2]
  TGI: > 100 µM
[3]
  TGI: > 100 µM
[4]
  TGI: > 100 µM
[5]
  TGI: > 100 µM
[6]
  TGI: > 100 µM
[7]
  TGI: > 100 µM
[8]
  TGI: > 100 µM
[9]
  TGI: > 100 µM
[10]
  TGI: > 100 µM
[11]
  TGI: > 100 µM
[12]
  TGI: > 100 µM
[13]
  TGI: > 100 µM
[14]
  TGI: > 100 µM
[15]
  TGI: > 100 µM
[16]
  TGI: > 100 µM
[17]
  TGI: > 100 µM
[18]
  TGI: > 100 µM
[19]
  TGI: > 100 µM
[20]
  TGI: > 100 µM
[21]
  TGI: > 100 µM
[22]
  TGI: > 100 µM
[23]
  TGI: > 100 µM
[24]
  TGI: > 100 µM
[25]
  TGI: > 100 µM
[26]
  TGI: > 100 µM
[27]
  TGI: > 100 µM
[28]
  TGI: > 100 µM
[29]
  TGI: > 100 µM
[30]
  TGI: > 100 µM
[31]
  TGI: > 100 µM
[32]
  TGI: > 100 µM
[33]
  TGI: > 100 µM
[34]
  TGI: > 100 µM
[35]
  TGI: > 100 µM
[58]
  TGI: > 100 µM
[36]
  TGI: > 100 µM
[37]
  TGI: > 100 µM
[38]
  TGI: > 100 µM
[39]
  TGI: > 100 µM
[40]
  TGI: > 100 µM
[41]
  TGI: > 100 µM
[42]
  TGI: > 100 µM
[43]
  TGI: > 100 µM
[44]
  TGI: > 100 µM
[45]
  TGI: > 100 µM
[46]
  TGI: > 100 µM
[47]
  TGI: > 100 µM
[48]
  TGI: > 100 µM
[49]
  TGI: > 100 µM
[50]
  TGI: > 100 µM
[51]
  TGI: > 100 µM
[52]
  TGI: > 100 µM
[53]
  TGI: > 100 µM
[55]
  TGI: > 100 µM
[56]
  TGI: > 100 µM
[57]
  TGI: > 100 µM

## C=C1C(=O)OC2C1C(OC(=O)/C(C)=C/C)CC(O)(CCl)C1C(OC(C)=O)C=C(C)C21O (stereo not drawn)
[1]
  TGI: 21.7 µM
[2]
  TGI: 9.39 µM
[3]
  TGI: 32.9 µM
[4]
  TGI: 14.9 µM
[5]
  TGI: 35 µM
[6]
  TGI: 39.5 µM
[7]
  TGI: 30.8 µM
[8]
  TGI: 22.8 µM
[9]
  TGI: > 58.9 µM
[10]
  TGI: > 66 µM
[59]
  TGI: 17.6 µM
[11]
  TGI: 25 µM
[12]
  TGI: 27.9 µM
[13]
  TGI: 38.1 µM
[14]
  TGI: 41 µM
[15]
  TGI: 34.4 µM
[16]
  TGI: 40.4 µM
[17]
  TGI: > 100 µM
[18]
  TGI: 27.9 µM
[19]
  TGI: > 100 µM
[20]
  TGI: 42.6 µM
[21]
  TGI: 31.9 µM
[22]
  TGI: 32.5 µM
[23]
  TGI: 23.4 µM
[24]
  TGI: 61 µM
[25]
  TGI: 29 µM
[26]
  TGI: 32.4 µM
[27]
  TGI: 26.1 µM
[28]
  TGI: 5.94 µM
[29]
  TGI: 21.1 µM
[30]
  TGI: 46.1 µM
[31]
  TGI: 14 µM
[32]
  TGI: > 51.2 µM
[33]
  TGI: 31.9 µM
[34]
  TGI: 26.5 µM
[35]
  TGI: 20.7 µM
[58]
  TGI: 64.6 µM
[36]
  TGI: 29.3 µM
[37]
  TGI: 22.7 µM
[38]
  TGI: > 53.6 µM
[39]
  TGI: > 61.3 µM
[40]
  TGI: 41.8 µM
[41]
  TGI: 20.8 µM
[42]
  TGI: 34.1 µM
[43]
  TGI: 30 µM
[44]
  TGI: 19.8 µM
[45]
  TGI: > 100 µM
[46]
  TGI: > 67.3 µM
[47]
  TGI: 24.3 µM
[48]
  TGI: 27.3 µM
[49]
  TGI: 34.1 µM
[50]
  TGI: > 37.4 µM
[51]
  TGI: 33.5 µM
[52]
  TGI: 24.7 µM
[53]
  TGI: 25.7 µM
[54]
  TGI: 31.9 µM
[55]
  TGI: 41.2 µM
[56]
  TGI: 17.7 µM
[57]
  TGI: 31.3 µM
